Laboratory results reported in PubChem BioAssay AID296 (DTP/NCI, 2004).
“And” between values parts separate entries of the source, which are not always exact repeats. Identical values can stand only once. Records with an inconclusive call do not appear.

Tested on: MX-1 breast xenograft, nude mice, tumor weight T/C
Test: NCI In Vivo Anticancer Drug Screen. Data for tumor model Human Mammary Carcinoma MX-1 Xenograft (intrarenal inoculation) in NU/NU Swiss (nude) mice
Details: endpoint: mean tumor weight change, higher = larger tumour
Procedure: The antitumor activity of compounds was measured in mice bearing transplantable tumors. Survival or tumor size were measured and the results are expressed as the measurement made in the treated group (T) divided by the measurement made in the vehicle treated control group (C). The tumor model used in this assay is Human Mammary Carcinoma MX-1 Xenograft (intrarenal inoculation) in NU/NU Swiss (nude) mice

[1] = dose: 300.0 mg/kg/injection, schedule: Q04DX003 (sc), vehicle: Klucel (hydroxypropylcellulose) (HPC)
[2] = dose: 600.0 mg/kg/injection, schedule: Q04DX003 (sc), vehicle: Klucel (hydroxypropylcellulose) (HPC)
[3] = dose: 600.0 mg/kg/injection, schedule: Q04DX003 (sc), vehicle: saline with Tween-80
[4] = dose: 1200.0 mg/kg/injection, schedule: Q04DX003 (sc), vehicle: saline with Tween-80
[5] = dose: 2400.0 mg/kg/injection, schedule: Q04DX003 (sc), vehicle: saline with Tween-80

## Cc1c(CNc2ccc(C(=O)NC(CC(=O)O)C(=O)O)cc2)ccc2nc(N)nc(N)c12 (stereo not drawn)
dose: 6.0 mg/kg/injection, schedule: Q04DX003 (sc), vehicle: saline with Tween-80
  T/C: 29 % of control
dose: 48.0 mg/kg/injection, schedule: Q04DX003 (sc), vehicle: saline with Tween-80
  T/C: 13 % of control and 33 % of control
dose: 72.0 mg/kg/injection, schedule: Q04DX003 (sc), vehicle: saline with Tween-80
  T/C: 18 % of control and 28 % of control

## O=C(O)C(O)C(O)C1[O][Sb][O]C1C(=O)O (stereo not drawn)
dose: 75.0 mg/kg/injection, schedule: Q04DX003 (sc), vehicle: saline
  T/C: 91 % of control
dose: 150.0 mg/kg/injection, schedule: Q04DX003 (sc), vehicle: saline
  T/C: 99 % of control

## COc1ccc(-c2csc(=[N+]3CCCCC3)s2)cc1
dose: 3.12 mg/kg/injection, schedule: Q04DX003 (sc), vehicle: water
  T/C: 89 % of control
dose: 6.25 mg/kg/injection, schedule: Q04DX003 (sc), vehicle: water
  T/C: 85 % of control
dose: 12.5 mg/kg/injection, schedule: Q04DX003 (sc), vehicle: water
  T/C: 89 % of control

## OC(CCl)CN1CC[N+]2(CC1)CC[N+]1(CCN(CC(O)CCl)CC1)CC2 (stereo not drawn)
dose: 8.0 mg/kg/injection, schedule: Q01DX010 (sc), vehicle: water
  T/C: 117 % of control
dose: 32.0 mg/kg/injection, schedule: Q01DX010 (ip), vehicle: water
  T/C: 90 % of control
dose: 64.0 mg/kg/injection, schedule: Q01DX010 (ip), vehicle: water
  T/C: 88 % of control
dose: 64.0 mg/kg/injection, schedule: Q01DX010 (sc), vehicle: water
  T/C: 92 % of control and 94 % of control
dose: 106.66 mg/kg/injection, schedule: Q04DX003 (ip), vehicle: water
  T/C: 30 % of control
dose: 106.66 mg/kg/injection, schedule: Q04DX003 (sc), vehicle: water
  T/C: 45 % of control
dose: 128.0 mg/kg/injection, schedule: Q01DX010 (ip), vehicle: water
  T/C: 21 % of control
dose: 213.33 mg/kg/injection, schedule: Q04DX003 (ip), vehicle: water
  T/C: 52 % of control
dose: 213.33 mg/kg/injection, schedule: Q04DX003 (sc), vehicle: water
  T/C: 59 % of control
dose: 256.0 mg/kg/injection, schedule: Q01DX010 (ip), vehicle: water
  T/C: 27 % of control
dose: 426.65 mg/kg/injection, schedule: Q04DX003 (ip), vehicle: water
  T/C: 26 % of control
dose: 426.65 mg/kg/injection, schedule: Q04DX003 (sc), vehicle: water
  T/C: 49 % of control
dose: 512.0 mg/kg/injection, schedule: Q01DX010 (sc), vehicle: water
  T/C: 25 % of control

## O=C(O)c1cc(Cc2ccc(O)c(C(=O)O)c2)ccc1O (tested in a mixture with another compound)
dose: 75.0 mg/kg/injection, schedule: Q04DX003 (sc), vehicle: Klucel (hydroxypropylcellulose) (HPC)
  T/C: 63 % of control
dose: 150.0 mg/kg/injection, schedule: Q04DX003 (sc), vehicle: Klucel (hydroxypropylcellulose) (HPC)
  T/C: 55 % of control
[1]
  T/C: 93 % of control
[2]
  T/C: 76 % of control

## O=C1SC(c2ccccc2)=S=C1c1ccccc1
dose: 300.0 mg/kg/injection, schedule: Q04DX003 (sc), vehicle: saline with Tween-80
  T/C: 102 % of control
[3]
  T/C: 78 % of control
[4]
  T/C: 109 % of control
[5]
  T/C: 48 % of control

## COc1ccc2c(ccc3oc([N+](=O)[O-])cc32)c1
[1]
  T/C: 99 % of control
[2]
  T/C: 72 % of control
dose: 1200.0 mg/kg/injection, schedule: Q04DX003 (sc), vehicle: Klucel (hydroxypropylcellulose) (HPC)
  T/C: 71 % of control
dose: 2400.0 mg/kg/injection, schedule: Q04DX003 (sc), vehicle: Klucel (hydroxypropylcellulose) (HPC)
  T/C: 36 % of control

## CCC1=C[C@H]2CN(CCc3c([nH]c4ccccc34)[C@@](C(=O)OC)(c3cc4c(cc3OC)N(C)[C@H]3[C@@](O)(C(=O)OC)[C@H](OC(C)=O)[C@]5(CC)C=CCN6CC[C@]43[C@@H]65)C2)C1
dose: 3.0 mg/kg/injection, schedule: Q04DX003 (sc), vehicle: water
  T/C: 108 % of control
dose: 6.0 mg/kg/injection, schedule: Q04DX003 (sc), vehicle: water
  T/C: 84 % of control
dose: 12.0 mg/kg/injection, schedule: Q04DX003 (sc), vehicle: water
  T/C: 56 % of control

## O=C(O)c1cc(C(=O)O)c(C(=O)O)cc1C(=O)O.[NH2-].[NH2-].[NH2-].[NH2-].[Pt+2].[Pt+2]
dose: 1.25 mg/kg/injection, schedule: Q04DX003 (ip), vehicle: water
  T/C: 113 % of control
dose: 5.0 mg/kg/injection, schedule: Q04DX003 (ip), vehicle: water
  T/C: 97 % of control
dose: 10.0 mg/kg/injection, schedule: Q04DX003 (ip), vehicle: water
  T/C: 60 % of control and 76 % of control
dose: 20.0 mg/kg/injection, schedule: Q04DX003 (ip), vehicle: water
  T/C: 66 % of control
dose: 40.0 mg/kg/injection, schedule: Q04DX003 (ip), vehicle: water
  T/C: 26 % of control
dose: 80.0 mg/kg/injection, schedule: Q04DX003 (ip), vehicle: water
  T/C: 15 % of control

## Cc1ccc(C(=O)NC2C(=O)NC(C(C)C)C(=O)N3CCCC3C(=O)N(C)CC(=O)N(C)C(C(C)C)C(=O)OC2C)c2c1Oc1c(c(C(=O)NC3C(=O)NC(C(C)C)C(=O)N4CCCC4C(=O)N(C)CC(=O)N(C)C(C(C)C)C(=O)OC3C)c3nc(-c4ccccc4)c(=O)oc3c1C)N2 (stereo not drawn)
dose: 0.25 mg/kg/injection, schedule: Q04DX003 (ip), vehicle: water
  T/C: 77 % of control
dose: 0.5 mg/kg/injection, schedule: Q04DX003 (ip), vehicle: water
  T/C: 75 % of control
dose: 1.0 mg/kg/injection, schedule: Q04DX003 (ip), vehicle: water
  T/C: 49 % of control
dose: 2.0 mg/kg/injection, schedule: Q04DX003 (ip), vehicle: water
  T/C: 51 % of control
dose: 4.0 mg/kg/injection, schedule: Q04DX003 (ip), vehicle: water
  T/C: 12 % of control

## C1CN(P2(N3CC3)=NP(N3CC3)(N3CC3)=NP(N3CC3)(N3CC3)=N2)CCO1 (stereo not drawn)
dose: 12.5 mg/kg/injection, schedule: Q04DX003 (sc), vehicle: saline
  T/C: 36 % of control
dose: 25.0 mg/kg/injection, schedule: Q04DX003 (sc), vehicle: saline
  T/C: 9 % of control
dose: 50.0 mg/kg/injection, schedule: Q04DX003 (sc), vehicle: saline
  T/C: -77 % of control and -68 % of control (2×)
dose: 100.0 mg/kg/injection, schedule: Q04DX003 (sc), vehicle: saline
  T/C: -93 % of control

## C=C(OP(=O)(OC)OC)Sc1ccccc1C
dose: 0.2 mg/kg/injection, schedule: Q04DX003 (sc), vehicle: Klucel (hydroxypropylcellulose) (HPC)
  T/C: 65 % of control
dose: 0.4 mg/kg/injection, schedule: Q04DX003 (sc), vehicle: Klucel (hydroxypropylcellulose) (HPC)
  T/C: 67 % of control

## COC1=C(OC)C(=O)C(Sc2ccc3ccccc3c2)=CC1=O
dose: 100.0 mg/kg/injection, schedule: Q04DX003 (sc), vehicle: saline with Tween-80
  T/C: 97 % of control
dose: 200.0 mg/kg/injection, schedule: Q04DX003 (sc), vehicle: saline with Tween-80
  T/C: 68 % of control
dose: 400.0 mg/kg/injection, schedule: Q04DX003 (sc), vehicle: saline with Tween-80
  T/C: 88 % of control
dose: 800.0 mg/kg/injection, schedule: Q04DX003 (sc), vehicle: saline with Tween-80
  T/C: 61 % of control

## O=CC(S)CO (stereo not drawn)
dose: 100.0 mg/kg/injection, schedule: Q04DX003 (sc), vehicle: suspension in saline
  T/C: 151 % of control

## CO[C@@]12[C@H](COC(N)=O)C3=C(C(=O)C(C)=C(N)C3=O)N1C[C@@H]1N[C@@H]12
dose: 3.0 mg/kg/injection, schedule: Q04DX003 (sc), vehicle: saline
  T/C: -100 % of control
dose: 6.0 mg/kg/injection, schedule: Q04DX003 (sc), vehicle: saline
  T/C: -88 % of control and -100 % of control (2×)

## O=C1c2c(O)cccc2-c2nn(CCNCCO)c3ccc(NCCNCCO)c1c23
dose: 11.0 mg/kg/injection, schedule: Q04DX003 (ip), vehicle: water
  T/C: -100 % of control

## O=NN(CCF)C(=O)NC1CCCCC1
dose: 3.12 mg/kg/injection, schedule: Q04DX003 (sc), vehicle: Klucel (hydroxypropylcellulose) (HPC)
  T/C: 119 % of control
dose: 6.25 mg/kg/injection, schedule: Q04DX003 (sc), vehicle: Klucel (hydroxypropylcellulose) (HPC)
  T/C: 88 % of control
dose: 12.5 mg/kg/injection, schedule: Q04DX003 (sc), vehicle: Klucel (hydroxypropylcellulose) (HPC)
  T/C: 91 % of control
dose: 25.0 mg/kg/injection, schedule: Q04DX003 (sc), vehicle: Klucel (hydroxypropylcellulose) (HPC)
  T/C: 92 % of control

## COc1cc(C(C)(C)C)cc(OC)c1C(O)(c1c(OC)cc(C(C)(C)C)cc1OC)c1c(OC)cc(C(C)(C)C)cc1OC
[3]
  T/C: 212 % of control
[4]
  T/C: 154 % of control
[5]
  T/C: 207 % of control
